According to PubChem BioAssay AID248 (DTP/NCI, 2004):
“And” between values parts separate entries of the source, which are not always exact repeats. Equal entries are not always repeated. Inconclusive results and toxic doses are left out. No stated cut-off is given here; in the data, active means T/C of 150% or more; inactive means T/C below 125%.

System: L1210 leukemia ip in BDF1 mice, survival T/C
Test: NCI In Vivo Anticancer Drug Screen. Data for tumor model L1210 Leukemia (intraperitoneal) in B6D2F1 (BDF1) mice
Conditions: endpoint: mean survival time, higher = longer survival
Summary of the method: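 Transplanted-tumor mice were given test agent; controls received vehicle only. Survival readings from the two groups were divided (treated over control).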

[1] = dose: 200.0 mg/kg/injection, schedule: Q01DX001 (ip), vehicle: saline
[2] = dose: 100.0 mg/kg/injection, schedule: Q01DX001 (ip), vehicle: Klucel (hydroxypropylcellulose) (HPC)
[3] = dose: 200.0 mg/kg/injection, schedule: Q01DX001 (ip), vehicle: Klucel (hydroxypropylcellulose) (HPC)
[4] = dose: 100.0 mg/kg/injection, schedule: Q01DX009 (ip), vehicle: saline with Tween-80
[5] = dose: 200.0 mg/kg/injection, schedule: Q01DX009 (ip), vehicle: saline with Tween-80
[6] = dose: 200.0 mg/kg/injection, schedule: Q01DX009 (ip), vehicle: saline
[7] = dose: 100.0 mg/kg/injection, schedule: Q01DX009 (ip), vehicle: Klucel (hydroxypropylcellulose) (HPC)
[8] = dose: 100.0 mg/kg/injection, schedule: Q04DX003 (ip), vehicle: Klucel (hydroxypropylcellulose) (HPC)
[9] = dose: 200.0 mg/kg/injection, schedule: Q01DX009 (ip), vehicle: Klucel (hydroxypropylcellulose) (HPC)
[10] = dose: 200.0 mg/kg/injection, schedule: Q04DX003 (ip), vehicle: Klucel (hydroxypropylcellulose) (HPC)
[11] = dose: 400.0 mg/kg/injection, schedule: Q04DX003 (ip), vehicle: Klucel (hydroxypropylcellulose) (HPC)

Measured: T/C

O=C(O)c1cc(=O)n(CCCn2c(=O)cc(C(=O)O)[nH]c2=O)c(=O)[nH]1
inactive: dose: 100.0 mg/kg/injection, schedule: Q04DX002 (ip), vehicle: saline with Tween-80 93 % of control | dose: 200.0 mg/kg/injection, schedule: Q04DX002 (ip), vehicle: saline with Tween-80 101 % of control | dose: 400.0 mg/kg/injection, schedule: Q04DX002 (ip), vehicle: saline with Tween-80 89 % of control

CCN(CC)CCCC(C)Nc1c(C)cnc2cc(Cl)c(C)cc12 (stereo not drawn)
inactive: dose: 50.0 mg/kg/injection, schedule: Q01DX001 (ip), vehicle: saline 112 % of control | dose: 100.0 mg/kg/injection, schedule: Q01DX001 (ip), vehicle: saline 95 % of control | [1] 101 % of control

N#[N+]c1ccc(Br)cc1-c1nc(N)c2cc(Br)ccc2n1
inactive: dose: 50.0 mg/kg/injection, schedule: Q01DX001 (ip), vehicle: Klucel (hydroxypropylcellulose) (HPC) 94 % of control | [2] 105 % of control | [3] 105 % of control

COc1ccc2c(OC)cccc2c1
inactive: dose: 100.0 mg/kg/injection, schedule: Q01DX009 (ip), vehicle: other 87 % of control | dose: 200.0 mg/kg/injection, schedule: Q01DX009 (ip), vehicle: other 91 % of control | dose: 400.0 mg/kg/injection, schedule: Q01DX009 (ip), vehicle: other 91 % of control

CCOC(=O)C(N)CSCc1ccccc1 (stereo not drawn)
inactive: [4] 97 % of control | [5] 92 % of control | dose: 400.0 mg/kg/injection, schedule: Q01DX009 (ip), vehicle: saline with Tween-80 97 % of control

CC(C)c1ccc(/C=C2\CSC/C(=C/c3ccc(C(C)C)cc3)C2=O)cc1
inactive: [1] 95 % of control | [6] 91 % of control

Cc1cc2oc(C)[n+](Cc3ccccc3)c2cc1C
inactive: [4] 105 % of control and 86 % of control | dose: 100.0 mg/kg/injection, schedule: Q04DX003 (ip), vehicle: saline with Tween-80 97 % of control | [5] 96 % of control and 110 % of control | dose: 200.0 mg/kg/injection, schedule: Q04DX003 (ip), vehicle: saline with Tween-80 95 % of control | dose: 400.0 mg/kg/injection, schedule: Q04DX003 (ip), vehicle: saline with Tween-80 95 % of control

CN(CCc1cnc2nc(N)[nH]c(=O)c2n1)c1ccc(C(=O)O)cc1
inactive: dose: 75.0 mg/kg/injection, schedule: Q01DX001 (ip), vehicle: saline 90 % of control | dose: 150.0 mg/kg/injection, schedule: Q01DX001 (ip), vehicle: saline 95 % of control | dose: 300.0 mg/kg/injection, schedule: Q01DX001 (ip), vehicle: saline 94 % of control

CS(=O)(=O)N(CC(=O)O)Cc1ccccc1
inactive: dose: 50.0 mg/kg/injection, schedule: Q01DX009 (ip), vehicle: saline 101 % of control | dose: 50.0 mg/kg/injection, schedule: Q01DX009 (ip), vehicle: sodium bicarbonate 116 % of control | dose: 100.0 mg/kg/injection, schedule: Q01DX009 (ip), vehicle: saline 101 % of control | dose: 100.0 mg/kg/injection, schedule: Q01DX009 (ip), vehicle: sodium bicarbonate 106 % of control | dose: 100.0 mg/kg/injection, schedule: Q04DX003 (ip), vehicle: sodium bicarbonate 124 % of control | [6] 95 % of control | dose: 200.0 mg/kg/injection, schedule: Q01DX009 (ip), vehicle: sodium bicarbonate 101 % of control | dose: 200.0 mg/kg/injection, schedule: Q04DX003 (ip), vehicle: sodium bicarbonate 91 % of control | dose: 400.0 mg/kg/injection, schedule: Q01DX009 (ip), vehicle: saline 97 % of control | dose: 400.0 mg/kg/injection, schedule: Q01DX009 (ip), vehicle: sodium bicarbonate 104 % of control | dose: 400.0 mg/kg/injection, schedule: Q04DX003 (ip), vehicle: sodium bicarbonate 91 % of control

CC(C)=CCC(=O)NC(=O)NS(=O)(=O)c1ccc(C)cc1
inactive: dose: 10.2 mg/kg/injection, schedule: Q01DX009 (ip), vehicle: Klucel (hydroxypropylcellulose) (HPC) 100 % of control | [7] 96 % of control | [8] 100 % of control | [9] 100 % of control | [10] 102 % of control | [11] 101 % of control

c1ccc(CNCC2c3[nH]c4ccccc4c3CN2C2CCCCC2)cc1 (stereo not drawn)
inactive: dose: 75.0 mg/kg/injection, schedule: Q01DX001 (ip), vehicle: carboxymethylcellulose (CMC) 102 % of control | dose: 150.0 mg/kg/injection, schedule: Q01DX001 (ip), vehicle: carboxymethylcellulose (CMC) 90 % of control | dose: 300.0 mg/kg/injection, schedule: Q01DX001 (ip), vehicle: carboxymethylcellulose (CMC) 91 % of control

CC(=O)OC1C2CC3C(C2)C31 (stereo not drawn)
inactive: dose: 50.0 mg/kg/injection, schedule: Q01DX009 (ip), vehicle: saline with Tween-80 105 % of control | [4] 97 % of control | [5] 94 % of control

Cc1ccc(S(=O)(=O)C2CCCCC2Cl)cc1 (stereo not drawn)
inactive: dose: 100.0 mg/kg/injection, schedule: Q01DX001 (ip), vehicle: carboxymethylcellulose (CMC) 109 % of control | dose: 200.0 mg/kg/injection, schedule: Q01DX001 (ip), vehicle: carboxymethylcellulose (CMC) 102 % of control | dose: 400.0 mg/kg/injection, schedule: Q01DX001 (ip), vehicle: carboxymethylcellulose (CMC) 98 % of control

CN(C)N=Nc1ccc(C(=O)N/N=C/c2ccc(Br)cc2)cc1
inactive: [8] 94 % of control | [10] 104 % of control | [11] 95 % of control

N#Cc1ccc(Cl)cc1.N#Cc1ccc(Cl)cc1.[Cl][Pt][Cl]
inactive: dose: 6.25 mg/kg/injection, schedule: Q04DX003 (ip), vehicle: water 109 % of control | dose: 12.5 mg/kg/injection, schedule: Q04DX003 (ip), vehicle: water 105 % of control | dose: 25.0 mg/kg/injection, schedule: Q04DX003 (ip), vehicle: water 107 % of control | dose: 50.0 mg/kg/injection, schedule: Q04DX003 (ip), vehicle: water 109 % of control

C[CH2][Ge]([CH2]C)[O][Ge]([CH2]C)[CH2]C
inactive: dose: 5.0 mg/kg/injection, schedule: Q04DX002 (ip), vehicle: saline with Tween-80 95 % of control | dose: 10.0 mg/kg/injection, schedule: Q04DX002 (ip), vehicle: saline with Tween-80 100 % of control | dose: 20.0 mg/kg/injection, schedule: Q04DX002 (ip), vehicle: saline with Tween-80 95 % of control

O=[N+]([O-])c1cc(Br)c(Br)cc1Br
inactive: [2] 106 % of control | [7] 97 % of control | [3] 101 % of control | [9] 96 % of control | dose: 400.0 mg/kg/injection, schedule: Q01DX001 (ip), vehicle: Klucel (hydroxypropylcellulose) (HPC) 101 % of control

O=c1[nH]c2cc(F)ccc2o1
inactive: [7] 103 % of control | [8] 104 % of control | [9] 101 % of control | [10] 103 % of control | dose: 400.0 mg/kg/injection, schedule: Q01DX009 (ip), vehicle: Klucel (hydroxypropylcellulose) (HPC) 111 % of control | [11] 111 % of control

CCCc1nc(N)[nH]c(=O)c1CCCCc1ccccc1
inactive: dose: 100.0 mg/kg/injection, schedule: Q04DX003 (ip), vehicle: saline 96 % of control | dose: 200.0 mg/kg/injection, schedule: Q04DX003 (ip), vehicle: saline 110 % of control | dose: 400.0 mg/kg/injection, schedule: Q04DX003 (ip), vehicle: saline 100 % of control

CC(=O)OC1C(C[N+](=O)[O-])OC(n2cnc3c(NC(=O)c4ccccc4)ncnc32)C(OC(C)=O)C1OC(C)=O (stereo not drawn)
inactive: dose: 50.0 mg/kg/injection, schedule: Q04DX002 (ip), vehicle: saline 102 % of control | dose: 100.0 mg/kg/injection, schedule: Q04DX002 (ip), vehicle: saline 100 % of control | dose: 200.0 mg/kg/injection, schedule: Q04DX002 (ip), vehicle: saline 121 % of control
